Data: patent US20250215010A1, “DIAZABICYCLOOCTANE DERIVATIVES USEFUL AS MATRIX METALLOPROTEINASE INHIBITORS” (VASA THERAPEUTICS SPOLKA Z OGRANICZONA ODPOWIEDZIALNOSCIA, priority 2022, published 2025)
Where two headings read alike, the source gives them in different places.

Columns and labels:
Assay type in all cases: biochemical
ADAM17 (TACE) = ADAM17 (TACE) (Homo sapiens, UniProt P78536); test: TACE fluorometric inhibition assay (Enzo kit BML-AK310); conditions: quenched fluorogenic peptide, ex/em 320/420 nm; read-out: TACE IC50 class
Sequence of ADAM17 (TACE) (P78536 215-477 limits assumed): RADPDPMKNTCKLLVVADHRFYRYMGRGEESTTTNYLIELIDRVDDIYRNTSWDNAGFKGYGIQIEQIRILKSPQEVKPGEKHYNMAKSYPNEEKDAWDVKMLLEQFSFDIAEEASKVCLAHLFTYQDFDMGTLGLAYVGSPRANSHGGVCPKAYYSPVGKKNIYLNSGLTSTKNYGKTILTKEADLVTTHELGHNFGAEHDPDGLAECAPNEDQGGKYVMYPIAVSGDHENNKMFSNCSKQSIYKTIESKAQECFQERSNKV
Procedure, shortened: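 Kit-based TACE assay run per manufacturer's protocol, using quenched fluorogenic peptide Mca-PLAQAV-Dpa-RSSSR-NH2 whose cleavage raises Mca fluorescence. Signal read at ex/em 320/420 nm; IC50 (nM) derived from inhibition curves of normalized values.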

ADAM10 = biological target: T1, ADAM10 (Homo sapiens, UniProt O14672); test: SensoLyte 520 ADAM10 fluorometric activity assay (AnaSpec AS-72226); conditions: FRET peptide substrate, ex/em 495/520 nm; read-out: ADAM 10 IC50 class
T1 construct: purchased AnaSpec, Inc. AS-72226
T1 sequence (O14672 214-748): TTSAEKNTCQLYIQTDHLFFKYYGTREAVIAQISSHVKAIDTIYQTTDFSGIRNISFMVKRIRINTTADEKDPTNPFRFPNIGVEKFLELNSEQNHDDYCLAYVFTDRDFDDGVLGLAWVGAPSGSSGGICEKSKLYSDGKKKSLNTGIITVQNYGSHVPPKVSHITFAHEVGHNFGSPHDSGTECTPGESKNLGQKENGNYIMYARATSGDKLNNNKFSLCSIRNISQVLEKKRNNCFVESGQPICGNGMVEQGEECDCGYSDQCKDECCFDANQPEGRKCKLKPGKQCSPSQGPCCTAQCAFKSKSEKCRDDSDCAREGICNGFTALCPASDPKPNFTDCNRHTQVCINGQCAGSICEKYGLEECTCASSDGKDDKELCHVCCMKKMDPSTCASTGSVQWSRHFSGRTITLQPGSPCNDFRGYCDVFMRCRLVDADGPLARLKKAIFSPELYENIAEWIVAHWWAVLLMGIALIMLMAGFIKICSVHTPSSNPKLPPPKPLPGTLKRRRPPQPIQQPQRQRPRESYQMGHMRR
Description: The inhibitory activities of the compounds of the invention were assessed in 96-well microplate format using MMP1, MMP2, MMP9 and MMP13 colorimetric assay kits and TACE fluorometric assay kit from Enzo Life Sciences, Inc. The inhibitory effect of the compounds of the invention on ADAM10 activity were evaluated in 96-well microplate format using fluorometric assay from AnaSpec, Inc.
SensoLyte® 520 ADAM10 Activity Assay Kit (catalog #AS-72226) is a complete assay system designed to screen ADAM10 inhibitors using FRET-based peptide substrate containing the 5-FAM/QXL™ 520 fluorophore/quencher pair. The fluorescence of 5-FAM is quenched by QXL™ 520 and recovered upon cleavage of the peptide by active ADAM10.
The inhibitory activity of the compounds of the invention against ADAM10 was tested according to the manufacturer's assay protocol and the fluorescence was monitored at excitation/emission wavelengths=495 nm/520 nm using Tecan Infinite® 200 Pro F Nano^+ microplate reader.
The normalized values were analyzed using GraphPadPrism 9 for Windows (GraphPad Software, San Diego, CA, USA) software by plotting inhibition curves and determining the IC50 values (in nM).

MMP13 = biological target: T2, MMP13 (Homo sapiens, UniProt P45452); test: MMP-13 colorimetric inhibition assay (Enzo kit BML-AK412)
T2 construct: purchased Enzo Life Sciences, Inc. BML-AK412
Procedure, shortened: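 Thiopeptide chromogenic substrate (Ac-PLG-[2-mercapto-4-methylpentanoyl]-LG-OC2H5); MMP-13 hydrolysis of the thioester yields a thiol that reacts with DTNB, read at 415 nm. IC50 values (nM) derived from inhibition curves of normalized data.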

MMP1 = biological target: T3, MMP1 (Homo sapiens, UniProt P03956); test: MMP-1 colorimetric inhibition assay (Enzo kit BML-AK404); conditions: thiopeptide substrate, absorbance 415 nm; read-out: MMP 1 IC50 class
T3 sequence (P03956 100-269 limits assumed): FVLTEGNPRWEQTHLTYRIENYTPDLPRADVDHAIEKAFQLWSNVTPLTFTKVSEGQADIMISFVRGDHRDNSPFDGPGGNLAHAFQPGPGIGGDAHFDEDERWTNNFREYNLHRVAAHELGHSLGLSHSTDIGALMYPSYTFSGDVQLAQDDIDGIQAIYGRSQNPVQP
Procedure, shortened: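 Colorimetric kit run per manufacturer protocol. MMP-1 cleaves a thiopeptide substrate (Ac-PLG-[2-mercapto-4-methylpentanoyl]-LG-OC2H5); released thiol reacts with DTNB, monitored at 415 nm. IC50 (nM) from inhibition curves of normalized values.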

MMP2 = biological target: T4, MMP2 (Homo sapiens, UniProt P08253); test: MMP-2 colorimetric inhibition assay (Enzo kit BML-AK408); conditions: thiopeptide substrate, absorbance 415 nm; read-out: MMP 2 IC50 class
T4 sequence (P08253 110-660): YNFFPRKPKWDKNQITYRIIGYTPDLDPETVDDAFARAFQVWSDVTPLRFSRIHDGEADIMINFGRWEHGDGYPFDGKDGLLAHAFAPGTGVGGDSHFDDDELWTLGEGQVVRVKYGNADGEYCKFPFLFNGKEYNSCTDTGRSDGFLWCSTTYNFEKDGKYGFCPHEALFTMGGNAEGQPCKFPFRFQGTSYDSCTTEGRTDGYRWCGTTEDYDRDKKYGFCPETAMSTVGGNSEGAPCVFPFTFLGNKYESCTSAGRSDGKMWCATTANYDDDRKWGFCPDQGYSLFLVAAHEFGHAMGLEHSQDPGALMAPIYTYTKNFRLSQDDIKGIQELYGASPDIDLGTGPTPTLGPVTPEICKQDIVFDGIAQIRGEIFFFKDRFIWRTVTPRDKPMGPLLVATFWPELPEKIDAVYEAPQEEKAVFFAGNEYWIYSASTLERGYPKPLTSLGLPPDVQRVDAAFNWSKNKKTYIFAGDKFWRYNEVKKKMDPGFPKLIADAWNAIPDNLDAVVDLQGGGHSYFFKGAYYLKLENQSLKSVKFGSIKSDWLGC
Procedure, shortened: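 Cleavage of the thiopeptide Ac-PLG-[2-mercapto-4-methylpentanoyl]-LG-OC2H5 releases a sulfhydryl that reacts with DTNB, read at 415 nm per the kit protocol. IC50 values (nM) come from inhibition curves of normalized data.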

MMP9 = MMP9 (Homo sapiens, UniProt P14780); test: MMP-9 colorimetric inhibition assay (Enzo kit BML-AK410); conditions: thiopeptide substrate, absorbance 415 nm; read-out: MMP 9 IC50 class
Sequence of MMP9 (P14780 94-707): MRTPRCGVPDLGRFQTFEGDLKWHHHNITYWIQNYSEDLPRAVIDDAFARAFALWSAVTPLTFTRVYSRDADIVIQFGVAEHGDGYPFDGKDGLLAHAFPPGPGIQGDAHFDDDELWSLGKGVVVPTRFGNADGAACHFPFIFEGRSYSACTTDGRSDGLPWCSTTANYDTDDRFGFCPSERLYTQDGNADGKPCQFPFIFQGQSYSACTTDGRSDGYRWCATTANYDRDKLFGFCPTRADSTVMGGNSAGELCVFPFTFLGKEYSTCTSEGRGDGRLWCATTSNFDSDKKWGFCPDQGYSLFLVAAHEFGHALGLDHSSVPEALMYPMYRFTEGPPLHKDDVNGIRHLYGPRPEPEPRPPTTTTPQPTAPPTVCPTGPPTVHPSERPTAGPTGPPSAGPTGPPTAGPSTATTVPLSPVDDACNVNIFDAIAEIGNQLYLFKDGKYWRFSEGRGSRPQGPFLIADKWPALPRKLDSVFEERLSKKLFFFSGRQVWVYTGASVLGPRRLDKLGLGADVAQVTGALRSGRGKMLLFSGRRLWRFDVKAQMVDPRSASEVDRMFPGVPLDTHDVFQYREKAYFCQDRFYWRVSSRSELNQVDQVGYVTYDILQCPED
Procedure, shortened: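 Colorimetric thioester-substrate assay: hydrolysis of Ac-PLG-[2-mercapto-4-methylpentanoyl]-LG-OC2H5 frees a thiol that reacts with DTNB, read at 415 nm. Run per kit protocol. IC50 (nM) taken from inhibition curves of normalized values.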

[1] = thiopeptide substrate, absorbance 415 nm, read-out: MMP 13 IC50 class

SMILES | IC50 (ADAM17 (TACE)) | IC50 (ADAM10) | IC50 (MMP13; [1]) | IC50 (MMP1) | IC50 (MMP2) | IC50 (MMP9) | IC50 (MMP13)
COCCOC(=O)N1[C@@H]2CC[C@H]1[C@H](C(=O)NO)N(S(=O)(=O)c1ccc(OC3CCCCC3)nc1)C2 [Example 10, 2-methoxyethyl (1S,2R,5R)-3-((6-(cyclohexyloxy)pyridin-3-yl)sulfonyl)-2-(hydroxycarbamoyl)-3,8-diazabicyclo[3.2.1]octane-8-carboxylate] | 1 to 10 µM | > 10 µM | < 0.05 µM | 0.05 to 1 µM | < 0.05 µM | < 0.05 µM | 
COCCOC(=O)N1[C@@H]2CC[C@H]1[C@H](C(=O)NO)N(S(=O)(=O)c1ccc(Oc3ccc(OC)cc3)nc1)C2 [Example 18, 2-methoxyethyl (1S,2R,5R)-2-(hydroxycarbamoyl)-3-((6-(4-methoxy-phenoxy)pyridin-3-yl)sulfonyl)-3,8-diazabicyclo-[3.2.1]octane-8-carboxylate] | 1 to 10 µM | 1 to 10 µM | < 0.05 µM | 1 to 10 µM | < 0.05 µM | < 0.05 µM | 
COCCOC(=O)N1[C@@H]2CC[C@H]1[C@H](C(=O)NO)N(S(=O)(=O)c1ccc(Oc3ccc(OC(F)(F)F)cc3)nc1)C2 [Example 19, 2-methoxyethyl (1S,2R,5R)-2-(hydroxycarbamoyl)-3-((6-(4-(trifluoro-methoxy)phenoxy)-pyridin-3-yl)-sulfonyl)-3,8-diaza-bicyclo[3.2.1]octane-8-carboxylate] | 1 to 10 µM | > 10 µM | < 0.05 µM | 1 to 10 µM | < 0.05 µM | < 0.05 µM | 
COCCOC(=O)N1[C@@H]2CC[C@H]1[C@H](C(=O)NO)N(S(=O)(=O)c1ccc(Oc3ccc(Cl)cc3F)nc1)C2 [Example 20, 2-methoxyethyl (1S,2R,5R)-3-((6-(4-chloro-2-fluoro-phenoxy)pyridin-3-yl)sulfonyl)-2-(hydroxycarbamoyl)-3,8-diazabicyclo[3.2.1]-octane-8-carboxylate] | 0.05 to 1 µM | 1 to 10 µM | < 0.05 µM | 0.05 to 1 µM | < 0.05 µM | < 0.05 µM | 
COCCOC(=O)N1[C@@H]2CC[C@H]1[C@H](C(=O)NO)N(S(=O)(=O)c1ccc(Oc3ccc(F)cc3F)nc1)C2 [Example 21, 2-methoxyethyl (1S,2R,5R)-3-((6-(2,4-difluoro-phenoxy)pyridin-3-yl)sulfonyl)-2-(hydroxycarbamoyl)-3,8-diazabicyclo-[3.2.1]octane-8-carboxylate] | 0.05 to 1 µM | > 10 µM | < 0.05 µM | 0.05 to 1 µM | < 0.05 µM | < 0.05 µM | 
COCCOC(=O)N1[C@@H]2CC[C@H]1[C@H](C(=O)NO)N(S(=O)(=O)c1ccc(Oc3ccc(F)c(F)c3)nc1)C2 [Example 22, 2-methoxyethyl (1S,2R,5R)-3-((6-(3,4-difluoro-phenoxy)pyridin-3-yl)sulfonyl)-2-(hydroxycarbamoyl)-3,8-diazabicyclo-[3.2.1]octane-8-carboxylate] | 0.05 to 1 µM | > 10 µM | < 0.05 µM | 0.05 to 1 µM | < 0.05 µM | < 0.05 µM | 
COCCOC(=O)N1[C@@H]2CC[C@H]1[C@H](C(=O)NO)N(S(=O)(=O)c1ccc(Oc3ccc(OC(F)F)cc3)nc1)C2 [Example 24, 2-methoxyethyl (1S,2R,5R)-3-((6-(4-(difluoromethoxy)phenoxy)pyridin-3-yl)sulfonyl)-2-(hydroxycarbamoyl)-3,8-diazabicyclo[3.2.1]octane-8-carboxylate] | 0.05 to 1 µM | 1 to 10 µM | < 0.05 µM | 1 to 10 µM | < 0.05 µM | < 0.05 µM | 
COCCOC(=O)N1[C@@H]2CC[C@H]1[C@H](C(=O)NO)N(S(=O)(=O)c1ccc(Oc3ccc(OCC(F)(F)F)cc3)nc1)C2 [Example 25, 2-methoxyethyl (1S,2R,5R)-2-(hydroxycarbamoyl)-3-((6-(4-(2,2,2-trifluoroethoxy)-phenoxy)pyridin-3-yl)sulfonyl)-3,8-diazabicyclo[3.2.1]-octane-8-carboxylate] | > 10 µM | > 10 µM | < 0.05 µM | 1 to 10 µM | < 0.05 µM | < 0.05 µM | 
COCCOC(=O)N1[C@@H]2CC[C@H]1[C@H](C(=O)NO)N(S(=O)(=O)c1ccc(Oc3ccc(OC)nc3)nc1)C2 [Example 28, 2-methoxyethyl (1S,2R,5R)-2-(hydroxycarbamoyl)-3-((6-((6-methoxy-pyridin-3-yl)oxy)-pyridin-3-yl)-sulfonyl)-3,8-diaza-bicyclo[3.2.1]octane-8-carboxylate] | 1 to 10 µM | > 10 µM | < 0.05 µM | 0.05 to 1 µM | < 0.05 µM | < 0.05 µM | 
CCOc1ccc(Oc2ccc(S(=O)(=O)N3C[C@H]4CC[C@@H]([C@@H]3C(=O)NO)N4C(=O)OCCOC)cn2)cc1 [Example 29, 2-methoxyethyl (1S,2R,5R)-3-((6-(4-ethoxyphenoxy)-pyridin-3-yl)-sulfonyl)-2-(hydroxycarbamoyl)-3,8-diazabicyclo-[3.2.1]octane-8-carboxylate] | 1 to 10 µM | > 10 µM |  | 0.05 to 1 µM | < 0.05 µM | < 0.05 µM | < 0.05 µM
COCCOC(=O)N1[C@@H]2CC[C@H]1[C@H](C(=O)NO)N(S(=O)(=O)c1ccc(Oc3ccc(OC(C)C)cc3)nc1)C2 [Example 30, 2-methoxyethyl (1S,2R,5R)-2-(hydroxycarbamoyl)-3-((6-(4-isopropoxy-phenoxy)pyridin-3-yl)sulfonyl)-3,8-diazabicyclo[3.2.1]-octane-8-carboxylate] | 1 to 10 µM | > 10 µM | < 0.05 µM | 0.05 to 1 µM | < 0.05 µM | < 0.05 µM | 
